Reference: patent publication US20220016061A1, “Preparation Stabilized by Means of Nonaqueous Solvent” (MEDRx Co., Ltd., priority 2018, published 2022)
Where a name gives a salt, the structure may show the parent alone.

Tests used:
[1] = Assessment of stability of baclofen hydrochloride solution (Example 3); format: physicochemical; conditions: water, NMP, propylene glycol, glycerin; 50° C.
Procedure: Baclofen (10.0 g) was dissolved in 10% hydrochloric acid (20 g), the solvent in the prepared solution was frozen, and then the frozen product was dried in a lyophilizer overnight to give baclofen hydrochloride.
The resulting baclofen hydrochloride was dissolved in water, NMP (N-methylpyrrolidone), propylene glycol or glycerin to prepare each solution comprising baclofen hydrochloride in an amount of 0.25% by weight. Each of the prepared solutions was stored at 50° C. and the contexts of baclofen and ring products thereof in the solutions were measured after 1 and 2 weeks of the storage to assess the stability of baclofen.

[2] = Solubility of baclofen in solvents; format: physicochemical
From the text: The concentration of baclofen was insufficient to be used as an external preparation.

| SMILES | stability when dissolved in the solvents [1] | solubility in 10% hydrochloric acid ([2]; 10% hydrochloric acid) | solubility in lactic acid ([2]; lactic acid) | solubility in water ([2]; water) |
| --- | --- | --- | --- | --- |
| NCC(CC(=O)O)c1ccc(Cl)cc1 (stereo not shown) [Baclofen hydrochloride] | stable |  |  |  |
| NCC(CC(=O)O)c1ccc(Cl)cc1 (stereo not shown) [baclofen, 4-amino-3-(4-chloropehnyl)butanoic acid] |  | about 39% | about 33% | about 0.27% |
